Among the data in paper PMC10386709, “Preparation of Alcohol Dehydrogenase–Zinc Phosphate Hybrid Nanoflowers through Biomimetic Mineralization and Its Application in the Inhibitor Screening” (Molecules, 2023) are inhibition, IC50 and Km values, retold here.

The target in data set [1] is T1, Alcohol dehydrogenase (ADH) (Saccharomyces cerevisiae, UniProt P00330).
T1 construct: gene ADH1
T1 sequence (P00330 2-348): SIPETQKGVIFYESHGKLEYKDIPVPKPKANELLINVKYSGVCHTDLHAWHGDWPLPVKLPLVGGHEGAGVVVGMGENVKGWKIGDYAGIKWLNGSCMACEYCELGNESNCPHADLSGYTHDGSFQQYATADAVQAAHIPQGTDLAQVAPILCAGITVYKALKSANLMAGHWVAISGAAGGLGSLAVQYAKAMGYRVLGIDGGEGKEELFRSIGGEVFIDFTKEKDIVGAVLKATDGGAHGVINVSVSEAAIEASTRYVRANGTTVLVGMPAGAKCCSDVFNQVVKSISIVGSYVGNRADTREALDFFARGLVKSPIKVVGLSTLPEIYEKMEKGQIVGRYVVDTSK
Nature of the data set: NADH absorbance at […] nm, immobilized ADH nanoflowers, % inhibition at […] (weak). It counts as biochemical.

Data set [2] concerns the target T1, Alcohol dehydrogenase (ADH). Put plainly: NADH absorbance at […] nm, immobilized ADH nanoflowers, % inhibition at […]. It counts as biochemical.
Data set [3] shares this target. Nature of the data set: NADH absorbance at […] nm, dose-response; free ADH (IC50 […] on immobilized ADH HNFs). It counts as biochemical.
Substrate in the data set “purified protein”: NC(=O)c1ccc[n+]([C@@H]2O[C@H](COP(=O)([O-])OP(=O)(O)OC[C@H]3O[C@@H](n4cnc5c(N)ncnc54)[C@H](O)[C@@H]3O)[C@@H](O)[C@H]2O)c1
Nature of the data set: purified protein. It is filed as biochemical, Saccharomyces cerevisiae. As to conditions: Zn2+.

As a reminder, the inhibition is the drop in the measured response relative to a control, in per cent. In data set [1], `Oc1cc(O)c2c(c1)O[C@H](c1ccc(O)c(O)c1)[C@@H](O)C2` [Cianidanol] gave an inhibition at 1500 µM of 34.9 ± 4%.

Take `O=c1cc(-c2ccc(O)cc2)oc2cc(O)cc(O)c12` [apigenin]: the inhibition at 1500 µM in data set [2] (read-out: Inhibition (%)) amounted to 52.5 ± 5.5%.

On to `O=c1oc2c(O)c(O)cc3c(=O)oc4c(O)c(O)cc1c4c23` [ellagic acid], for which the inhibition at 1500 µM in data set [2] (read-out: Inhibition (%)) came to 58.2 ± 10.3%.

Take `O=C(O)c1cc(O)c(O)c(O)c1` [gallic acid]: the inhibition at 1500 µM in data set [2] (read-out: Inhibition (%)) was determined as 61.9 ± 2.8%.

On to `O=C1C[C@@H](c2ccc(O)cc2)Oc2cc(O)cc(O)c21` [naringenin], for which at 1500 µM the inhibition in data set [2] was 75.5 ± 2.1%.

In data set [2], `O=C(O)c1ccc(O)c(O)c1` [protocatechuic acid] showed an inhibition at 1500 µM of 68.3 ± 2.9%.

As a reminder, the IC50 is the point on the concentration scale where inhibition reaches its midpoint. Read a low IC50 as higher potency. Turning to `CNC(=C[N+](=O)[O-])NCCSCc1ccc(CN(C)C)o1` [ranitidine], in data set [3], half-maximal inhibition (IC50) was put at 390 µM.

In data set [2], `COc1cc(C(=O)O)ccc1O` [vanillic acid] had an inhibition at 1500 µM of 55.1 ± 1%.

B1: Alcohol dehydrogenase (ADH) (Saccharomyces cerevisiae S288C) (protein)
chain: T1 sequence (P00330 2-348)
One may read the Km as the substrate concentration at which the rate is half of its maximum. Take B1: the Michaelis-Menten constant (Km) in the data set “purified protein” is listed as 5.33 mM.
